Tests used:
[1] = system: in vitro co-culture; experiment: Side effects of high drug concentrations in in vitro co-culture; assay type: cell-based; settings: in vitro co-culture condition
[2] = system: 3D motor unit model (MN spheroid and skeletal muscle fiber bundle)
[3] = system: 3D motor unit model (hESC-derived MN spheroid and iPSC-derived skeletal muscle fiber bundle with NMJ); assay type: cell-based, human
[4] = system: ALS motor unit (iALS-MN spheroid and iPSC-derived skeletal muscle fiber bundle); experiment: Drug treatment of ALS motor unit model, muscle contraction by optical stimulation; assay type: cell-based, human; settings: 1-Hz optical stimulation, n=180; untreated ALS ~32.3%
Procedure: Epifluorescence and confocal images were acquired using a Zeiss Axiovert 200 microscope and an Olympus FV-1000 confocal microscope, respectively. 3D reconstruction and analysis of confocal images were performed with IMARIS software (Bitplane). Muscle contraction measurement was performed in a stage-top incubator (INUBG2TF-WSKM-SET, Tokai Hit) on Axiovert 200, and image sequences were captured using AxioVision. Automated tracking of the local deformation of the skeletal muscle cells and deflection of the pillars upon light excitation were carried out using ImageJ and Python script with an OpenCV package. Formulas for calculating muscle contraction force from pillar displacements include:
To avoid single-cell attachment to the glass bottom, the microfluidic device was incubated with 4% Pluronic F-127 (Sigma) in the incubator for 1 hour, rinsed with distilled water, and dried. […]
hESC-derived NSCs and iPSC-derived NSCs from a patient with sporadic ALS were infected with an AAV-CAG-ChR2H134R-tdTomato-WPRE plasmid to express a mutated variant of the light-sensitive ion channel, channelrhodopsin-2H134R. […] The cells were cultured for 4 days, expanded for another 3 days, and sorted by fluorescence-activated cell sorting (BD Biosciences, FACSAria II) with strong expression of tdTomato. […]

In the case of COc1cc(Nc2c(C#N)cnc3cc(OCCCN4CCN(C)CC4)c(OC)cc23)c(Cl)cc1Cl [bosutinib], the “concentration that can cause side effects” value [1] is reported as “over 800 uM”.

For N[C@@H](CCC(=O)O)C(=O)O [glutamic acid], the average contraction force [2] was ~0.5 pN, the “average frequency of muscle contractions” value [2] was 0.7 Hz and the “morphology after prolonged treatment” value [2] was “neurite regression and muscle atrophy”. For the same compound, the “muscle contraction after prolonged treatment” value [2] was “no muscle contraction was observed”, the muscle contraction force [2] was “relatively decreased” and the muscle contraction frequency [2] was “dropped”. The “muscle contraction with chemical stimulation” value [2] was “significant loss of function”, the “muscle contraction with electrical stimulation” value [2] was “no significant difference” and the “neurotoxic effect / myotoxicity” value [2] was “mainly caused a neurotoxic effect but no observable myotoxicity”.

In the case of α-bungarotoxin [αBTX], the “muscle contraction in the presence of αBTX” value [3] is reported as “completely inhibited”.

With CO[C@H]1C[C@@H]2CC[C@@H](C)[C@@](O)(O2)C(=O)C(=O)N2CCCC[C@H]2C(=O)O[C@H]([C@H](C)C[C@@H]2CC[C@@H](O)[C@H](OC)C2)CC(=O)[C@H](C)/C=C(\C)[C@@H](O)[C@@H](OC)C(=O)[C@H](C)C[C@H](C)/C=C/C=C/C=C/1C [rapamycin] the “missed muscle contractions after light stimulation” value [4] was ~16.1% and the “concentration that can cause side effects” value [1] was “over 1 uM”.

In the case of NC1=N[C@H](O)[C@H]2[C@H]3O[C@]4(O)O[C@@H]([C@@H](O)[C@@]2(N1)[C@@H]4O)[C@]3(O)CO [TTX, tetrodotoxin], the “muscle contraction after rinsing away the TTX” value [3] is reported as “partially recovered” and the “muscle contraction under TTX” value [3] is reported as “completely prevented muscle contraction”.

From patent publication US12398355B2, “Micro physiological model for neuronal and muscular diseases and disorders” (Massachusetts Institute of Technology, priority 2019, dated 2025)
